The source of these data is US11565998B2, “Succinate prodrug, compositions containing the succinate prodrug and uses thereof” (ABLIVA AB, priority 2019, dated 2023).

Structures are written as SMILES. Where only a bound is given, the exact number is not on record here.

The test system of assay [1] is human peripheral blood cells. Description: Metformin effect on mitochondrial function and lactate production of human blood cells. Format: cell-based. From the text: As mentioned above, increased lactate plasma levels are often observed in patients treated with drugs that may have mitochondrial-related side effects.
Assay [2] relates to rotenone-mediated inhibition of complex 1. As to the kind of experiment: Pig model of rotenone induced mitochondrial complex 1 dysfunction. The assay is classed as in vivo, Yorkshire landrace hybrid pigs. The following applies: rotenone infusion 7.1 mg/hr for 1.5 hours, below quantification. The method, then:
To study the effect of rotenone-mediated inhibition of complex 1, Yorkshire landrace hybrid pigs were anaesthetised and implanted with venous catheters for simultaneous infusion of rotenone and Compound 1 or vehicle (PBS). Rotenone (7.1 mg/hr) was infused during 1.5 hours. Compound 1 was infused at a constant rate of 2 mg/kg/min over a period of 2.5 hours. The control animal was infused with PBS. Blood samples were taken with 30 min intervals and plasma was separated by centrifugation. Microdialysates were collected by inserting a microdialysis probe into the striatum of the brain and analysed for lactate using an ISCUS instrument (MDialysis). At the end of infusion, the animal was euthanised and terminal blood and organ samples were collected. Plasma and tissue samples were stored frozen and later analysed for succinate in an LC/MS method using a Thermo Vanquish UPLC+Thermo Quantis triple quadrupole MS instrument, an Acquity UPLC HSS C18 (100×2.1 mm, 1.8 μm) column with guard filter and gradient elution; A=0.1% Formic acid, B=Acetonitrile. [13C]-labelled succinate was used as internal standard. Lactate data were expressed as percentage of the baseline value obtained before start of rotenone infusion.

In the case of `CN(C)C(=N)N=C(N)N` [Metformin], the “mitochondrial function at Complex I” value in assay [1] (human peripheral blood cells, concentrations relevant for metformin intoxication) was “inhibits mitochondrial function of human peripheral blood cells at Complex I in a time- and dose-dependent fashion”. Also, in assay [1] (intact platelets, over time), the lactate production result is on record as “significant increase in lactate production”.

For `C=C(C)[C@H]1Cc2c(ccc3c2O[C@@H]2COc4cc(OC)c(OC)cc4[C@@H]2C3=O)O1` [Rotenone], the “tissue concentrations of succinate” value in assay [2] was below 2 µM.
